Source: US6066628A, “Non-iron metalloporphyrins and methods of use” (Emory University, priority 1998, dated 2000)
Values joined by “and” are separate entries in the source; they are usually repeats but may differ in a detail not shown here. Equal values may be shown once. Read-outs that look alike come from different tables or passages of the source.

Assays:
[1] = system: Y. enterocolitica; assay: Disc diffusion sensitivity test; assay type: cell-based; conditions: disc ~50 μg MP
[2] = system: N. meningitidis; assay: Disc diffusion sensitivity test; assay type: cell-based; conditions: disc ~50 μg MP
[3] = system: S. marcescens; assay: Disc diffusion sensitivity test; assay type: cell-based, Serratia marcescens
[4] = system: E. coli; assay: Disc diffusion sensitivity test; assay type: cell-based, Escherichia coli
[5] = system: P. mirabills; assay: Disc diffusion sensitivity test; assay type: cell-based, Proteus mirabilis
[6] = system: K. pneumoniae; assay: Disc diffusion sensitivity test; assay type: cell-based, Klebsiella pneumoniae
[7] = system: K. oxytoca; assay: Disc diffusion sensitivity test; assay type: cell-based, Klebsiella oxytoca
[8] = system: Ps. aeruginosa; assay: Disc diffusion sensitivity test; assay type: cell-based, Pseudomonas aeruginosa; conditions: disc ~50 μg MP; further: key: -: resistant; N: not determined
[9] = system: C. freundii; assay: Disc diffusion sensitivity test; assay type: cell-based, Citrobacter freundii
[10] = system: E. aerogenes; assay: Disc diffusion sensitivity test; assay type: cell-based, Enterobacter aerogenes
[11] = system: F. menigosepticum; assay: Disc diffusion sensitivity test; assay type: cell-based, Flavobacterium meningosepticum
[12] = system: S. aureus; assay: Disc diffusion sensitivity test; assay type: cell-based, Staphylococcus aureus
[13] = system: B. subtilis; assay: Disc diffusion sensitivity test; assay type: cell-based, Bacillus subtilis; conditions: B. subtilis; disc ~50 μg MP
[14] = system: S. pyogenes A; assay: Disc diffusion sensitivity test; assay type: cell-based, Streptococcus pyogenes; conditions: disc ~50 μg MP
[15] = system: E. faecalis; assay: Disc diffusion sensitivity test; assay type: cell-based, Enterococcus faecalis; conditions: disc ~50 μg MP; further: key: -: resistant; N: not determined
[16] = system: M. smegmatis; assay: Disc diffusion sensitivity test; assay type: cell-based, Mycobacterium smegmatis; conditions: disc ~50 μg MP
[17] = system: M. bovis; assay type: cell-based, Mycobacterium bovis; conditions: disc ~50 μg MP
[18] = system: M tuber. H37Rv; assay: Disc diffusion sensitivity test; assay type: cell-based, Mycobacterium tuberculosis; conditions: disc ~50 μg MP
[19] = system: M tuber. H37Pa; assay: Disc diffusion sensitivity test; assay type: cell-based, Mycobacterium tuberculosis; conditions: disc ~50 μg MP
[20] = system: S. crevisieae; assay: Disc diffusion sensitivity test; assay type: cell-based, Saccharomyces cerevisiae; conditions: S. cerevisiae; disc ~50 μg MP
[21] = system: Staphylococcus carnosus; assay: Disc diffusion sensitivity test; assay type: cell-based; conditions: 50 μg disc
[22] = system: Staphylococcus xylolus; assay: Disc diffusion sensitivity test; assay type: cell-based; conditions: 50 μg disc
[23] = system: Y. enterocolitica; assay: microbe, parasite or virus in culture; assay type: cell-based
[24] = system: S. aureus; assay type: cell-based, Staphylococcus aureus
[25] = system: M. smegmatis; assay type: cell-based, Mycobacterium smegmatis; conditions: for antibacterial activity: M. smegmatis
[26] = system: Y. pseudotuberculosis; assay type: cell-based
[27] = system: Neisseria meningitidis; assay: Minimal inhibitory concentration; assay type: cell-based
[28] = system: Bacillus subtilis; assay: Minimal inhibitory concentration; assay type: cell-based
[29] = system: Streptococcus pyogenes JRS4; assay type: cell-based
[30] = system: Mycobacterium bovis (BCG); assay type: cell-based
[31] = system: E. coli; assay type: cell-based, Escherichia coli; conditions: E. coli DH-5 alpha hemA (Table 6)
[32] = system: E. coli EB53 (hemPR^+); assay: Growth inhibition on Nutrient Broth Dipyridyl plates; conditions: NBD 0.1 mM plates
[33] = system: mammalian cells in culture; assay: Cytotoxicity in eukaryotic cell cultures; assay type: cell-based; conditions: human cells in culture
[34] = system: patients; conditions: patients with compromised kidney function, high dosages; cited from earlier work

Structure (SMILES): C=CC1=C(C)c2cc3[n-]c(cc4[n-]c(cc5nc(cc1n2)C(C)=C5C=C)c(C)c4CCC(=O)[O-])c(CCC(=O)[O-])c3C.[H+].[H+].[Mn+2] [Mn-PPIX, Manganese protoporphyrin IX]
- diameter (mm) of the inhibition zone [1]: 30 mm
- diameter (mm) of the inhibition zone [2]: 18 mm
- diameter (mm) of the inhibition zone ([3]; S. marcescens, disc ~50 μg MP): -
- sensitive strains / strains tested (inhibition zones larger or equal 20 mm) ([3]; Serratia marcescens, 50 μg disc): 2/3
- diameter (mm) of the inhibition zone ([4]; E. coli, disc ~50 μg MP): -
- sensitive strains / strains tested (inhibition zones larger or equal 20 mm) ([4]; Escherichia coli, 50 μg disc): 16/18
- diameter (mm) of the inhibition zone ([5]; P. mirabilis, disc ~50 μg MP): 22 mm
- sensitive strains / strains tested (inhibition zones larger or equal 20 mm) ([5]; Proteus mirabilis, 50 μg disc): 2/2
- diameter (mm) of the inhibition zone ([6]; K. pneumoniae, disc ~50 μg MP): -
- sensitive strains / strains tested (inhibition zones larger or equal 20 mm) ([6]; Klebsiella pneumoniae, 50 μg disc): 9/13
- diameter (mm) of the inhibition zone ([7]; K. oxytoca, disc ~50 μg MP): -
- sensitive strains / strains tested (inhibition zones larger or equal 20 mm) ([7]; Klebsiella oxytoca, 50 μg disc): 1/1
- diameter (mm) of the inhibition zone [8]: -
- diameter (mm) of the inhibition zone ([9]; C. freundii, disc ~50 μg MP): 22 mm
- sensitive strains / strains tested (inhibition zones larger or equal 20 mm) ([9]; Citrobacter freundii, 50 μg disc): 4/4
- diameter (mm) of the inhibition zone ([10]; E. aerogenes, disc ~50 μg MP): -
- sensitive strains / strains tested (inhibition zones larger or equal 20 mm) ([10]; Enterobacter aerogenes, 50 μg disc): 1/1
- diameter (mm) of the inhibition zone ([11]; F. meningosepticum, disc ~50 μg MP): 17 mm
- sensitive strains / strains tested (inhibition zones larger or equal 20 mm) ([11]; Flavobacterium meningosepticum, 50 μg disc): 1/1
- diameter (mm) of the inhibition zone ([12]; S. aureus, disc ~50 μg MP): 23 mm
- sensitive strains / strains tested (inhibition zones larger or equal 20 mm) ([12]; Staphylococcus aureus, 50 μg disc): 9/9
- diameter (mm) of the inhibition zone [13]: 25 mm
- diameter (mm) of the inhibition zone [14]: -
- diameter (mm) of the inhibition zone [15]: -
- diameter (mm) of the inhibition zone [16]: 25 mm
- diameter (mm) of the inhibition zone [17]: 35 mm
- diameter (mm) of the inhibition zone [18]: -
- diameter (mm) of the inhibition zone [19]: -
- diameter (mm) of the inhibition zone [20]: -
- sensitive strains / strains tested (inhibition zones larger or equal 20 mm) [21]: 1/1
- sensitive strains / strains tested (inhibition zones larger or equal 20 mm) [22]: 1/1
- Minimal inhibitory concentration (MIC) [23]: 0.4
- antibacterial activity [23]: inhibitory
- MIC ([24]; S. aureus 8325-4 (Table 4)): 1 µg/mL
- MIC ([24]; S. aureus 8325-4 (Table 6), in µg/mL): 3
- MIC ([24]; S. aureus 8325-4, 20 to 24 hours (Table 5)): 3 µg/mL
- Minimal inhibitory concentration (MIC) ([24]; methicillin-resistant S. aureus IR219, Nutrient broth (Table 2)): 3.2 µg/mL
- antibacterial activity [25]: inhibitory
- MIC ([25]; M. smegmatis LR222 (Table 4)): 0.5 µg/mL
- Minimal inhibitory concentration (MIC) ([25]; M. smegmatis LR222, LB + Tween 80 (Table 2)): 0.8 µg/mL
- MIC ([26]; Y. pseudotuberculosis YP66 (Table 4)): < 0.1 µg/mL
- MIC ([26]; Y. pseudotuberculosis YP66 (Table 6), in µg/mL): 1-2
- MIC ([26]; Y. pseudotuberculosis, iron restricted NBD 0.1 mM, 20 to 24 hours (Table 5)): 1 to 2 µg/mL
- MIC ([27]; N. meningitidis IR1072, 20 to 24 hours (Table 5)): 2 µg/mL
- MIC ([27]; Neisseria meningitidis (Table 4)): 2 µg/mL
- MIC ([28]; B. subtilis 3G18, 20 to 24 hours (Table 5)): 1 µg/mL
- MIC ([28]; Bacillus subtilis (Table 4)): 1 µg/mL
- sensitivity ([29]; S. pyogenes): resistant
- MIC ([29]; S. pyogenes JRS4 (Table 4)): > 4 µg/mL
- MIC ([29]; S. pyogenes JRS4, 20 to 24 hours (Table 5)): > 4 µg/mL
- MIC ([30]; M. bovis (BCG) (Table 4)): 0.8 µg/mL
- MIC ([30]; M. bovis (BCG), two weeks (Table 5)): 0.8 µg/mL
- MIC [31]: > 10 µg/mL
- inhibition of growth [32]: inhibited growth

Structure (SMILES): C=Cc1c(C)c2[n]3c1C=C1N=C(C=c4c(C)c(C(=O)O)c([n]4[Ga]3[Cl])=C(CC(=O)O)C3=NC(=C2)C(C)C3CCC(=O)O)C(CC)=C1C (centres unmarked) [GA-Ce6, Ga-chlorin e6]
- antibacterial activity [23]: significantly less active
- MIC ([23]; in µg/mL): 5 and 10
- antibacterial activity ([24]; S. aureus): active
- MIC ([24]; S. aureus IR2419, dark (Table 10)): 3.2 µg/mL
- antibacterial activity [25]: active
- MIC ([25]; M. smegmatis LR222, dark (Table 10)): 0.4 µg/mL
- cytotoxicity [33]: cytotoxic to human cells in culture

Structure (SMILES): O=[N+]([O-])[O-].O=[N+]([O-])[O-].O=[N+]([O-])[O-].[Ga+3] [gallium nitrate, Gallium nitrate]
- major complication of treatment [34]: Reversible nephrotoxicity
